Measured values published in PMC6128854 (Scientific Reports, 2018).
Positions of bridges follow the written chain, without caps; N, C: chain ends. Non-standard residues stand in square brackets, D forms with d. Residues, ends and D or L forms follow the SMILES beside them. Hyp = O=C(O)[C@@H]1C[C@@H](O)CN1

Target: N-type calcium channel currents (Cav2.2) in rDRG neurons (Rattus norvegicus, UniProt Q02294)
Test: cell-based
Details: SEM

Sequence of N-type calcium channel currents (Cav2.2) in rDRG neurons (Q02294 whole entry, looked up): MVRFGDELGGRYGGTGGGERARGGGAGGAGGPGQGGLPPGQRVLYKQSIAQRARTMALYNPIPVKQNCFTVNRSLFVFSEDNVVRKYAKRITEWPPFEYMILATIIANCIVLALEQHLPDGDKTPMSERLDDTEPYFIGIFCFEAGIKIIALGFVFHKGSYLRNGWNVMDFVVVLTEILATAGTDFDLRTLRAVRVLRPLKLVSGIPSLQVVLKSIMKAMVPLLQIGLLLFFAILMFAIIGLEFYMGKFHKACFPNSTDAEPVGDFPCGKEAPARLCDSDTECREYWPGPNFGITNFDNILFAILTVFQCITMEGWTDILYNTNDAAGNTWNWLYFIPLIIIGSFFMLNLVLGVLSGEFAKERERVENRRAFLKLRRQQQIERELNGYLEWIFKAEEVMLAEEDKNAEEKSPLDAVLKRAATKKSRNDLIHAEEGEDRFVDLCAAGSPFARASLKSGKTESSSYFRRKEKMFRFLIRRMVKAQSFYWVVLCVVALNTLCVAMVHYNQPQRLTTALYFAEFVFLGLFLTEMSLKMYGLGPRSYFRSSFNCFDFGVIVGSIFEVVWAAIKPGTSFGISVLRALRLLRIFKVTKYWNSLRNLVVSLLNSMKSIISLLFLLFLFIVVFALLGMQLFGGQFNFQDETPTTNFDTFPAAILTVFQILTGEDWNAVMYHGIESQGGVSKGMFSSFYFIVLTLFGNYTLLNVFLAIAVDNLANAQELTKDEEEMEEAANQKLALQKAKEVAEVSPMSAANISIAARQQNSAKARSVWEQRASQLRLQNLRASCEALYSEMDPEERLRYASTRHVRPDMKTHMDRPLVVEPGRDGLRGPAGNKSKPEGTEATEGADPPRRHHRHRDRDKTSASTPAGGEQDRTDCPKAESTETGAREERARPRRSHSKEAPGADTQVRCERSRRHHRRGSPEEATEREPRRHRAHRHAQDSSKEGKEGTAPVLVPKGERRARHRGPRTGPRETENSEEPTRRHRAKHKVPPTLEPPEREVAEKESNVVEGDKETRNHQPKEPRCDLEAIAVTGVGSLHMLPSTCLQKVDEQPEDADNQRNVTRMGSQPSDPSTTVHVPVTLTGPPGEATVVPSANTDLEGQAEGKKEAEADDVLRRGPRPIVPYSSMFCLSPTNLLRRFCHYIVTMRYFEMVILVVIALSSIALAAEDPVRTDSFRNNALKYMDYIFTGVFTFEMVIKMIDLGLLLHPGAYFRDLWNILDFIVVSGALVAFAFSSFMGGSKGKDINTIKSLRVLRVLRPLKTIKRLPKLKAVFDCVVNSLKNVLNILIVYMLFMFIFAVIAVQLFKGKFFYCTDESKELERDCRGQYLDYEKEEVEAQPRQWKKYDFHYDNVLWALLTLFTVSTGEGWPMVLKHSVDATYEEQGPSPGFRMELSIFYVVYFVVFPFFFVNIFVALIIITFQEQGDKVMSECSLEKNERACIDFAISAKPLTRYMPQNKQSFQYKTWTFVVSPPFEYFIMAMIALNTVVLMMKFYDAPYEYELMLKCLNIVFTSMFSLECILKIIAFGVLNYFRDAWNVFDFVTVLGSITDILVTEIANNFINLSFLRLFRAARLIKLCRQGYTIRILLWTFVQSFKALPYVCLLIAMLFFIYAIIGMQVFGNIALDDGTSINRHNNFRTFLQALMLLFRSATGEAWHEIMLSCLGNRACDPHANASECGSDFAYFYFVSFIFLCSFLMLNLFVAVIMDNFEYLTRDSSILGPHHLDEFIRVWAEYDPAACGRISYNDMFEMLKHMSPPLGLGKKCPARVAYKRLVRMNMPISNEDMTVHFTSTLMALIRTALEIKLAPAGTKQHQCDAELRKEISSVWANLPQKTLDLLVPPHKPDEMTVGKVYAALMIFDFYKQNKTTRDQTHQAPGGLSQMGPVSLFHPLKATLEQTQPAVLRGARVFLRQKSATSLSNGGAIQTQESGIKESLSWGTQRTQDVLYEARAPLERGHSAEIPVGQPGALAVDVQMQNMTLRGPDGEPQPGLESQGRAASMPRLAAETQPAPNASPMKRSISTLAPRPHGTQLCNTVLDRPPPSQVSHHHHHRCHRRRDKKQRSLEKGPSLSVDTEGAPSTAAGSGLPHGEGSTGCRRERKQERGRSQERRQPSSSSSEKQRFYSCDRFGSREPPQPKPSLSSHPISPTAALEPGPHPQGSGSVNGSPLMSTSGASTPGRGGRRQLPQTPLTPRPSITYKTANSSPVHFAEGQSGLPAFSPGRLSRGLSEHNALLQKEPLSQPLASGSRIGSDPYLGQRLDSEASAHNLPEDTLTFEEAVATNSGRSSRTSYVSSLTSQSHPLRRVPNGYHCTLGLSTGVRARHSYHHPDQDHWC

`CC[C@H](C)[C@@H]1NC(=O)[C@@H]2CSSC[C@@H]3NC(=O)[C@H](CCCCN)NC(=O)[C@H](CO)NC(=O)CNC(=O)[C@@H]4C[C@@H](O)CN4C(=O)[C@@H]4CCCN4C(=O)[C@H](CCCCN)NC(=O)[C@@H](N)CSSC[C@H](NC(=O)[C@H](CSSC[C@@H](C(=O)N[C@@H](CCCNC(=N)N)C(=O)N[C@@H](CCCCN)C(=O)N[C@@H](Cc4ccc(O)cc4)C(=O)N[C@@H](Cc4ccc(O)cc4)C(=O)O)NC(=O)[C@H](CCCNC(=N)N)NC(=O)[C@H](CCCCN)NC(=O)[C@H]([C@@H](C)O)NC(=O)[C@H](Cc4ccc(O)cc4)NC(=O)[C@H](CO)NC1=O)NC(=O)[C@H](CC(=O)O)NC(=O)[C@H](Cc1ccc(O)cc1)NC(=O)[C@H](CCSC)NC(=O)[C@H](CO)NC(=O)[C@@H]1C[C@@H](O)CN1C(=O)[C@H](CO)NC3=O)C(=O)N[C@@H]([C@@H](C)O)C(=O)N[C@@H]([C@@H](C)O)C(=O)N2` [MoVIB-[R13Y]] (H-CKP[Hyp]GSKCS[Hyp]SMYDCCTTCISYTKRCRKYY-OH; disulfide 1-16, 8-19, 15-26) showed an IC50 of 900 ± 130 nM.
